Measured values published in the NIST ThermoML archive (doi:10.1016/j.jct.2014.05.016).

Experiment: xn = mol fraction of the nth substance listed
Conditions: 100 kPa, Liquid; for viscosity: Concentric cylinders viscometry; for mass density: Vibrating tube method

C[n+]1ccn(CCO)c1.F[B-](F)(F)F [1-(2-hydroxyethyl)-3-methylimidazolium tetrafluoroborate] + CCCC[n+]1ccccc1.F[B-](F)(F)F
Conditions | mass density [kg/m3] | viscosity [mPa·s]
293.15 K, x1 = 0.1003 | 1229 | 218.7
293.15 K, x1 = 0.2001 | – | 205.9
293.15 K, x1 = 0.2004 | 1242.4 | –
293.15 K, x1 = 0.2997 | – | 193.9
293.15 K, x1 = 0.3003 | 1255.9 | –
293.15 K, x1 = 0.3999 | 1269.7 | 184.2
293.15 K, x1 = 0.4996 | – | 176.1
293.15 K, x1 = 0.5007 | 1284.2 | –
293.15 K, x1 = 0.5991 | 1298.7 | 169.5
293.15 K, x1 = 0.6954 | 1313.4 | –
293.15 K, x1 = 0.6997 | – | 164.2
293.15 K, x1 = 0.7997 | 1329.9 | –
293.15 K, x1 = 0.7999 | – | 159.9
293.15 K, x1 = 0.8996 | 1346.1 | –
293.15 K, x1 = 0.8998 | – | 155.4
293.15 K, x1 = 1 | 1362.4 | 153.6
298.15 K, x1 = 0.1003 | 1225.5 | 160.4
298.15 K, x1 = 0.2001 | – | 151.5
298.15 K, x1 = 0.2004 | 1238.9 | –
298.15 K, x1 = 0.2997 | – | 143.4
298.15 K, x1 = 0.3003 | 1252.3 | –
298.15 K, x1 = 0.3999 | 1266.1 | 136.7
298.15 K, x1 = 0.4996 | – | 131.1
298.15 K, x1 = 0.5007 | 1280.6 | –
298.15 K, x1 = 0.5991 | 1295.1 | 126.4
298.15 K, x1 = 0.6954 | 1309.8 | –
298.15 K, x1 = 0.6997 | – | 122.7
298.15 K, x1 = 0.7997 | 1326.1 | –
298.15 K, x1 = 0.7999 | – | 119.5
298.15 K, x1 = 0.8996 | 1342.3 | –
298.15 K, x1 = 0.8998 | – | 116
298.15 K, x1 = 1 | 1358.7 | 115.1
303.15 K, x1 = 0.1003 | 1222 | 120.3
303.15 K, x1 = 0.2001 | – | 114.2
303.15 K, x1 = 0.2004 | 1235.4 | –
303.15 K, x1 = 0.2997 | – | 108.5
303.15 K, x1 = 0.3003 | 1248.8 | –
303.15 K, x1 = 0.3999 | 1262.5 | 104
303.15 K, x1 = 0.4996 | – | 99.88
303.15 K, x1 = 0.5007 | 1277 | –
303.15 K, x1 = 0.5991 | 1291.4 | 96.68
303.15 K, x1 = 0.6954 | 1306.1 | –
303.15 K, x1 = 0.6997 | – | 94.02
303.15 K, x1 = 0.7997 | 1322.4 | –
303.15 K, x1 = 0.7999 | – | 91.38
303.15 K, x1 = 0.8996 | 1338.6 | –
303.15 K, x1 = 0.8998 | – | 88.75
303.15 K, x1 = 1 | 1354.8 | 87.98
308.15 K, x1 = 0.1003 | 1218.7 | 92.07
308.15 K, x1 = 0.2001 | – | 87.89
308.15 K, x1 = 0.2004 | 1231.9 | –
308.15 K, x1 = 0.2997 | – | 83.89
308.15 K, x1 = 0.3003 | 1245.3 | –
308.15 K, x1 = 0.3999 | 1259 | 80.56
308.15 K, x1 = 0.4996 | – | 77.78
308.15 K, x1 = 0.5007 | 1273.4 | –
308.15 K, x1 = 0.5991 | 1287.9 | 75.21
308.15 K, x1 = 0.6954 | 1302.4 | –
308.15 K, x1 = 0.6997 | – | 73.36
308.15 K, x1 = 0.7997 | 1318.8 | –
308.15 K, x1 = 0.7999 | – | 71.46
308.15 K, x1 = 0.8996 | 1334.9 | –
308.15 K, x1 = 0.8998 | – | 69.32
308.15 K, x1 = 1 | 1351.2 | 68.59
313.15 K, x1 = 0.1003 | 1215.2 | 71.96
313.15 K, x1 = 0.2001 | – | 69.99
313.15 K, x1 = 0.2004 | 1228.4 | –
313.15 K, x1 = 0.2997 | – | 66.1
313.15 K, x1 = 0.3003 | 1241.8 | –
313.15 K, x1 = 0.3999 | 1255.5 | 63.68
313.15 K, x1 = 0.4996 | – | 61.56
313.15 K, x1 = 0.5007 | 1269.9 | –
313.15 K, x1 = 0.5991 | 1284.4 | 59.69
313.15 K, x1 = 0.6954 | 1298.8 | –
313.15 K, x1 = 0.6997 | – | 58.34
313.15 K, x1 = 0.7997 | 1315.1 | –
313.15 K, x1 = 0.7999 | – | 56.8
313.15 K, x1 = 0.8996 | 1331.2 | –
313.15 K, x1 = 0.8998 | – | 55.18
313.15 K, x1 = 1 | 1347.4 | 54.81
318.15 K, x1 = 0.1003 | 1211.8 | 57.27
318.15 K, x1 = 0.2001 | – | 55.12
318.15 K, x1 = 0.2004 | 1225 | –
318.15 K, x1 = 0.2997 | – | 52.99
318.15 K, x1 = 0.3003 | 1238.3 | –
318.15 K, x1 = 0.3999 | 1252 | 51.21
318.15 K, x1 = 0.4996 | – | 49.63
318.15 K, x1 = 0.5007 | 1266.3 | –
318.15 K, x1 = 0.5991 | 1280.7 | 48.25
318.15 K, x1 = 0.6954 | 1295.2 | –
318.15 K, x1 = 0.6997 | – | 47.11
318.15 K, x1 = 0.7997 | 1311.4 | –
318.15 K, x1 = 0.7999 | – | 45.99
318.15 K, x1 = 0.8996 | 1327.5 | –
318.15 K, x1 = 0.8998 | – | 44.69
318.15 K, x1 = 1 | 1343.7 | 44.44
323.15 K, x1 = 0.1003 | 1208.4 | 46.31
323.15 K, x1 = 0.2001 | – | 44.75
323.15 K, x1 = 0.2004 | 1221.5 | –
323.15 K, x1 = 0.2997 | – | 43.16
323.15 K, x1 = 0.3003 | 1234.8 | –
323.15 K, x1 = 0.3999 | 1248.5 | 41.83
323.15 K, x1 = 0.4996 | – | 40.75
323.15 K, x1 = 0.5007 | 1262.7 | –
323.15 K, x1 = 0.5991 | 1277.1 | 39.57
323.15 K, x1 = 0.6954 | 1291.8 | –
323.15 K, x1 = 0.6997 | – | 38.63
323.15 K, x1 = 0.7997 | 1307.8 | –
323.15 K, x1 = 0.7999 | – | 37.9
323.15 K, x1 = 0.8996 | 1323.8 | –
323.15 K, x1 = 0.8998 | – | 36.75
323.15 K, x1 = 1 | 1340.1 | 36.5
328.15 K, x1 = 0.1003 | 1205.1 | 38.01
328.15 K, x1 = 0.2001 | – | 36.85
328.15 K, x1 = 0.2004 | 1218.1 | –
328.15 K, x1 = 0.2997 | – | 35.7
328.15 K, x1 = 0.3003 | 1231.3 | –
328.15 K, x1 = 0.3999 | 1245 | 34.64
328.15 K, x1 = 0.4996 | – | 33.74
328.15 K, x1 = 0.5007 | 1259.2 | –
328.15 K, x1 = 0.5991 | 1273.5 | 32.9
328.15 K, x1 = 0.6954 | 1288 | –
328.15 K, x1 = 0.6997 | – | 32.19
328.15 K, x1 = 0.7997 | 1304.1 | –
328.15 K, x1 = 0.7999 | – | 31.58
328.15 K, x1 = 0.8996 | 1320.2 | –
328.15 K, x1 = 0.8998 | – | 30.65
328.15 K, x1 = 1 | 1336.4 | 30.46
333.15 K, x1 = 0.1003 | 1201.7 | 31.61
333.15 K, x1 = 0.2001 | – | 30.75
333.15 K, x1 = 0.2004 | 1214.6 | –
333.15 K, x1 = 0.2997 | – | 29.88
333.15 K, x1 = 0.3003 | 1227.9 | –
333.15 K, x1 = 0.3999 | 1241.5 | 29.05
333.15 K, x1 = 0.4996 | – | 28.35
333.15 K, x1 = 0.5007 | 1255.7 | –
333.15 K, x1 = 0.5991 | 1270 | 27.7
333.15 K, x1 = 0.6954 | 1284.4 | –
333.15 K, x1 = 0.6997 | – | 27.13
333.15 K, x1 = 0.7997 | 1300.5 | –
333.15 K, x1 = 0.7999 | – | 26.61
333.15 K, x1 = 0.8996 | 1316.6 | –
333.15 K, x1 = 0.8998 | – | 25.87
333.15 K, x1 = 1 | 1332.8 | 25.73
338.15 K, x1 = 0.1003 | 1198.3 | 26.6
338.15 K, x1 = 0.2001 | – | 25.96
338.15 K, x1 = 0.2004 | 1211.2 | –
338.15 K, x1 = 0.2997 | – | 25.28
338.15 K, x1 = 0.3003 | 1224.4 | –
338.15 K, x1 = 0.3999 | 1238 | 24.64
338.15 K, x1 = 0.4996 | – | 24.09
338.15 K, x1 = 0.5007 | 1252.2 | –
338.15 K, x1 = 0.5991 | 1266.5 | 23.58
338.15 K, x1 = 0.6954 | 1280.9 | –
338.15 K, x1 = 0.6997 | – | 23.11
338.15 K, x1 = 0.7997 | 1297 | –
338.15 K, x1 = 0.7999 | – | 22.69
338.15 K, x1 = 0.8996 | 1312.9 | –
338.15 K, x1 = 0.8998 | – | 22.08
338.15 K, x1 = 1 | 1329.2 | 21.98
343.15 K, x1 = 0.1003 | 1194.9 | 22.64
343.15 K, x1 = 0.2001 | – | 22.15
343.15 K, x1 = 0.2004 | 1207.8 | –
343.15 K, x1 = 0.2997 | – | 21.6
343.15 K, x1 = 0.3003 | 1221 | –
343.15 K, x1 = 0.3999 | 1234.6 | 21.12
343.15 K, x1 = 0.4996 | – | 20.68
343.15 K, x1 = 0.5007 | 1248.7 | –
343.15 K, x1 = 0.5991 | 1263 | 20.28
343.15 K, x1 = 0.6954 | 1277.3 | –
343.15 K, x1 = 0.6997 | – | 19.9
343.15 K, x1 = 0.7997 | 1293.4 | –
343.15 K, x1 = 0.7999 | – | 19.56
343.15 K, x1 = 0.8996 | 1309.3 | –
343.15 K, x1 = 0.8998 | – | 19.05
343.15 K, x1 = 1 | 1325.5 | 18.95
